# The source made the active and inactive calls. The calls are words filed in the database; no cut-off is given here.
# What was measured:
# [1] = tested on: NCI-H1975; test: Growth inhibition of human NCI-H1975 cells at 0.041 to 10 ug/ml after 72 hrs by MTT assay; type: functional, cell-based
# [2] = tested on: MDA-MB-468; test: Growth inhibition of human MDA-MB-468 cells overexpressing FAS gene after 72 hrs by MTT assay; type: functional, cell-based; conditions: MDA-MB-468, 72 h
# [3] = tested on: SW480; test: Growth inhibition of human SW480 cells overexpressing FAS gene after 72 hrs by MTT assay; type: functional, cell-based; conditions: SW480, 72 h
# [4] = target: Fatty acid synthase (Gallus gallus, UniProt P12276); test: Inhibition of chicken FAS by spectrophotometric analysis
# Fatty acid synthase, sequence (P12276 whole entry): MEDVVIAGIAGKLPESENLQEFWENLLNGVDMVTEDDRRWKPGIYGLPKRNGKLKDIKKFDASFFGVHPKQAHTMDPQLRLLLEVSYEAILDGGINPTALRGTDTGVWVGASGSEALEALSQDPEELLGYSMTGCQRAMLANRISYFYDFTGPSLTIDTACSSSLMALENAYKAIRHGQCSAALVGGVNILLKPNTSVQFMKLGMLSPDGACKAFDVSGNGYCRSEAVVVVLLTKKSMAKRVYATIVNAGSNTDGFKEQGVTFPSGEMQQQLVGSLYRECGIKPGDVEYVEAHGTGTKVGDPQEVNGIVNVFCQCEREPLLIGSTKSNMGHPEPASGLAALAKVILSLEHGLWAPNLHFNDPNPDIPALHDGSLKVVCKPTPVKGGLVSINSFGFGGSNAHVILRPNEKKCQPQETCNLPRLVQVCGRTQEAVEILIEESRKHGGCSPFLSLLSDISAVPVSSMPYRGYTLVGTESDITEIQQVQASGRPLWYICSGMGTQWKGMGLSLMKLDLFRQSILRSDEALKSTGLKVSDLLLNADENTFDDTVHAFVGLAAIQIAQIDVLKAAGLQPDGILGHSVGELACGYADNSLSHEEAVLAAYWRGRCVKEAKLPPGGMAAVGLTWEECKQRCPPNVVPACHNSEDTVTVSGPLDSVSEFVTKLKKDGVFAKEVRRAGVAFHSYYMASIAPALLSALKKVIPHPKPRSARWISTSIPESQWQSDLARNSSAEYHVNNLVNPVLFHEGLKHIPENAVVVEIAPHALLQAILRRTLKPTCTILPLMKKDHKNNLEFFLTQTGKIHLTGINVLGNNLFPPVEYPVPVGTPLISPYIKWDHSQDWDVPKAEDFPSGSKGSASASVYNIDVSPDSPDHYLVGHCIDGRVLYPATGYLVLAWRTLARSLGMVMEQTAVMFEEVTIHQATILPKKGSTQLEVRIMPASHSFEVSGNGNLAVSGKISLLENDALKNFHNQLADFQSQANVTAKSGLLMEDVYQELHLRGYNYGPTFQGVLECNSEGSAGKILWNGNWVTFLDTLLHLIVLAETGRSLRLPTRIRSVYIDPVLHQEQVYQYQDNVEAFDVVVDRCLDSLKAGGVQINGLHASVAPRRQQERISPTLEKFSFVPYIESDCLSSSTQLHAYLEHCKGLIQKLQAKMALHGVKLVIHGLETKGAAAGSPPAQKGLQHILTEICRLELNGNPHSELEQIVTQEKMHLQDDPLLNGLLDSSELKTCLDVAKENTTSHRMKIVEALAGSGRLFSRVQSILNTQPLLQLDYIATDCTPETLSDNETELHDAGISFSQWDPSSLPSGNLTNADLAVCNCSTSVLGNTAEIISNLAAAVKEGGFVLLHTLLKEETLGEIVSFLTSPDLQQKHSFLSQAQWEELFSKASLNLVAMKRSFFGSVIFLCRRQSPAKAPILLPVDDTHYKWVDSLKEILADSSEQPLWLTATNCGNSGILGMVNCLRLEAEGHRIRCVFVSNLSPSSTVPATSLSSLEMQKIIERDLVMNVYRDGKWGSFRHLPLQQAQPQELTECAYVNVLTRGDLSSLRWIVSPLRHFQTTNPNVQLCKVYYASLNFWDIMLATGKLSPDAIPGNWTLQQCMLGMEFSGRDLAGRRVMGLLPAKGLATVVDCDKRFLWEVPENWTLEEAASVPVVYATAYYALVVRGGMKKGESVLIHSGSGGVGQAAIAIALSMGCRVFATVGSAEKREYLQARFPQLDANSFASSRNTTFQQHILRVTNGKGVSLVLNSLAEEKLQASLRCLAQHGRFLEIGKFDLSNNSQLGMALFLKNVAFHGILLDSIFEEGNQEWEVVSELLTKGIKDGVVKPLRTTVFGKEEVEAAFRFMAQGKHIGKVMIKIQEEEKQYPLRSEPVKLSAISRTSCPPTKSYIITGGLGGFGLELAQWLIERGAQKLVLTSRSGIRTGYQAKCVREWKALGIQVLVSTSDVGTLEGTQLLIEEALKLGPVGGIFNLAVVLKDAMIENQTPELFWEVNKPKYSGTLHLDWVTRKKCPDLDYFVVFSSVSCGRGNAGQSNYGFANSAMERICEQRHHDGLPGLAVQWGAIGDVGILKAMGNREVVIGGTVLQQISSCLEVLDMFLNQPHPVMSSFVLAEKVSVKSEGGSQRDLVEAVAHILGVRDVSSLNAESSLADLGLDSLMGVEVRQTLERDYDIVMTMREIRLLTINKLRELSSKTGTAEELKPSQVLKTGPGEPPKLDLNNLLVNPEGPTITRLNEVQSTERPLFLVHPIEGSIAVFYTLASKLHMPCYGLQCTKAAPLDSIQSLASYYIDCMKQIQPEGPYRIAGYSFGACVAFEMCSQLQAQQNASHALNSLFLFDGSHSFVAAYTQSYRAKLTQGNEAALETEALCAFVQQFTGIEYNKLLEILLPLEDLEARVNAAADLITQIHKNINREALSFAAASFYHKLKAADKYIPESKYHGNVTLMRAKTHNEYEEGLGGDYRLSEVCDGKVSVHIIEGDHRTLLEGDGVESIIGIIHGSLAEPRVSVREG
SMILES,inhibition [1],IC50 [2] [µM],IC50 [3] [µM],IC50 [4] [µM]
CC1=NC2N=NNN2[C@@H](c2ccc(OCc3ccccc3)cc2)C1C(=O)Nc1ccccc1 (some centres not stated),inactive,19.3,11.1,–
COc1cc(OC)c([C@H]2NC(=S)NC(C)=C2C(=O)Nc2ccccc2Cl)cc1OC,inactive,–,7.5,–
CC1=C(C(=O)Nc2ccc(Cl)cc2)C(c2cc(Br)ccc2O)NC(=S)N1 (configuration not stated),inactive,–,14.2,–
O=[N+]([O-])c1cccc(-c2csc(N/N=C\c3ccccn3)n2)c1,inactive,8.3,1.5,12.7
CC1=C(C(=O)Nc2ccccc2)[C@@H](c2ccc(OCc3ccccc3)cc2)n2ncnc2N1,inactive,–,19.9,–
CC1=C(C(=O)Nc2ccccn2)C(c2ccc(Br)cc2)NC(S)=N1 (configuration not stated),inactive,8.4,–,–
CCn1c(SCC(=O)Nc2cc(Cl)ccc2Cl)nnc1C(C)(C)NC(=O)c1cccc(C)c1,inactive,–,14.7,–

# Source: ChEMBL document CHEMBL1806412, “Discovery of novel fatty acid synthase (FAS) inhibitors based on the structure of ketoaceyl synthase (KS) domain” (Bioorg Med Chem Lett, 2011)
